Test results from article PMC6471386, “Cloning, Expression, and Characterization of a Psychrophilic Glucose 6-Phosphate Dehydrogenase from Sphingomonas sp. PAMC 26621” (International Journal of Molecular Sciences, 2019).

Target: T1, SpG6PD1 (Sphingomonas sp. PAMC 26621, UniProt Z9Q3C2ML64)
T1 construct: cloning primer appears to add Gly after Met1 (ATGGGGCCAATC); 56 kDa on SDS-PAGE; tag removal not mentioned
T1 sequence (Z9Q3C2ML64 1-488): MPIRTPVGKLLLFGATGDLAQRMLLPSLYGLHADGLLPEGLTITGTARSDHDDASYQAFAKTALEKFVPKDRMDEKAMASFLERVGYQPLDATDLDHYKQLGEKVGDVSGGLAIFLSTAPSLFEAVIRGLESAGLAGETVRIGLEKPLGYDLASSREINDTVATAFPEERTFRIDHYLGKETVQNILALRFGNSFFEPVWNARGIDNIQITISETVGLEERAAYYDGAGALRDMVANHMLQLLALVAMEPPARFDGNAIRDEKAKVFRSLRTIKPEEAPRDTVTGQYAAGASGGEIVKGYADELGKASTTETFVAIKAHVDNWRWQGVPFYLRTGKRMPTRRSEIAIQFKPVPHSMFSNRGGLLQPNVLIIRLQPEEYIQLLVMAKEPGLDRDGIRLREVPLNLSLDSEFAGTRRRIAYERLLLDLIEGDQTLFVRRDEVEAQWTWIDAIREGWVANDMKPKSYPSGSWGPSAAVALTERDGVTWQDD
Assay: NAD(P)H formation at […] nm, Lineweaver-Burk
Format: biochemical
Conditions: NADP+ as co-substrate (assay mixture 100 µM); G6P varied 500-2000 µM; 50 mM Tris-HCl pH 8.0, 25 mM NaCl, 0.1 mM EDTA, 5% glycerol; 30 °C

O=P(O)(O)OC[C@H]1OC(O)[C@H](O)[C@@H](O)[C@@H]1O (stereo partly shown) [glucose 6-phosphate]
Km: 145 ± 2 µM
